Measurements published in patent US11584746B2, “Inhibitors of EGFR and methods of use thereof” (DANA-FARBER CANCER INSTITUTE, INC., priority 2018, dated 2023).
Read-outs that look alike come from different tables or passages of the source.

Key:
[1] = system: EGFR T790M/L858R Ba/F3 cell line; assay: Ba/F3 cell proliferation (MTS assay), EGFR T790M/L858R; type: cell-based, murine; settings: for inhibition at 1 µM: compound at 1 μM, EGFR T790M/L858R Ba/F3, read-out: Inhibition of proliferation, Activity (% DMSO control)
Method: The selectivity between wild-type EGFR and EGFR containing one or more mutations as described herein can also be measured using cellular proliferation assays where cell proliferation is dependent on kinase activity. […] Proliferation assays are performed at a range of inhibitor concentrations (e.g., 10 μM, 3 μM, 1.1 μM, 330 nM, 110 nM, 33 nM, I1 nM, 3 nM, 1 nM) and an EC50 is calculated.
All cell lines were maintained in RPMI 1640 (Cellgro; Mediatech Inc., Herndon, Calif.) supplemented with 10% FBS 100 units/mL penicillin, 100 units/mL streptomycin, and 2 mM glutamine. […] The EGFR I941R mutation was introduced via site directed mutagenesis using the Quick Change Site-Directed Mutagenesis kit (Stratagene; La Jolla, Calif.) according to the manufacturer's instructions. All constructs were confirmed by DNA sequencing. The constructs were shuttled into the retroviral vector JP1540 using the BD Creator™ System (BD Biosciences). Ba/F3 cells were infected with retrovirus and according to standard protocols, as described previously (Zhou 2009). Stable clones were obtained by selection in puromycin (2 μg/ml).
Growth and inhibition of growth was assessed by MTS assay and was performed according to previously established methods (Zhou 2009). The MTS assay is a colorimetric method for determining the number of viable cells that is based on the bioreduction of MTS by cells to a formazan product that is soluble in cell culture medium and can be detected spectrophotometrically. […] All experimental points were set up in six wells and all experiments were repeated at least three times. […] The curves were fitted using a non-linear regression model with a sigmoidal dose response.

[2] = target: recombinant EGFR T790M/L858R kinase (Homo sapiens (Human), UniProt P00533, L858R/T790M); assay: HTRF-based EGFR biochemical assay
recombinant EGFR T790M/L858R kinase, sequence (P00533 696-1022 T790M/L858R): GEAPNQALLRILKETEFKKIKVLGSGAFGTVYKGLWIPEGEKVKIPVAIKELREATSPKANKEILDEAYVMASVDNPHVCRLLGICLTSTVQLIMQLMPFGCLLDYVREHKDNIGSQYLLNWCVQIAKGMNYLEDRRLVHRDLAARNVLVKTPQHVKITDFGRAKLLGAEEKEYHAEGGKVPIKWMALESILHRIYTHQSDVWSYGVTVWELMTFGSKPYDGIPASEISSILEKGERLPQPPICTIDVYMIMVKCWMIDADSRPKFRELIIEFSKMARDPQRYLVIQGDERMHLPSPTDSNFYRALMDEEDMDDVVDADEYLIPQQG
Method: EGFR biochemical assays are carried out using a homogeneous time-resolved fluorescence (HTRF) assay. The reaction mixtures contain biotin-Lck-peptide substrate, wild type, or mutant EGFR enzyme in reaction buffer. Enzyme concentrations are adjusted to accommodate varying kinase activity and ATP concentrations. Compounds of the present application are diluted into the assay mixture and IC50 values are determined using 12-point inhibition curves.
EGFR kinase proteins were purified by glutathione-affinity chromatography followed by size-exclusion chromatography after cleavage with TEV or thrombin to remove the GST fusion partner following established procedures. (Yun 2008; Yun 2007).
EGFR biochemical assays were carried out using a homogeneous time-resolved fluorescence (HTRF) assay as described previously. The reaction mixtures contained 1 μM biotin-Lck-peptide substrate, wild type or mutant EGFR enzyme in reaction buffer (50 mM HEPES pH 7.1, 10 mM MgCl2, 0.01% BSA. 1 mM TCEP and 0.1 mM Na3VO4) at a final volume of 10 μL. […] All reactions were carried out at room temperature in white ProxiPlate™ 384-well Plus plates (PerkinElmer) and were quenched with 5 μL of 0.2 M EDTA at 60 min. Five μL per well of the detection reagent containing 2.5 ng PT66K (Cis-bio) and 0.05 μg SAXL (Prozyme) were added, and the plates were then incubated at room temperature for 1 hour and read with an EnVision plate reader.

[3] = system: EGFR L858R/T790M/C797S Ba/F3 cell line; assay: Ba/F3 cell proliferation (MTS assay), EGFR L858R/T790M/C797S; type: cell-based, murine; settings: Mus musculus, BaF3, compound at 1 μM, read-out: Inhibition of proliferation, Activity (% DMSO control)
Description: The selectivity between wild-type EGFR and EGFR containing one or more mutations as described herein can also be measured using cellular proliferation assays where cell proliferation is dependent on kinase activity. For example, murine Ba/F3 cells transfected with a suitable version of wild-type EGFR (such as VIII; containing a WT EGFR kinase domain), or Ba/F3 cells transfected with L858R/T790M, Del/T790M/L718Q, L858R/T790M/L718Q, L858R/T790M/C797S, Del/T790M/C797S, L858R/T790M/I941R, or Exon 19 deletion/T790M can be used. Proliferation assays are performed at a range of inhibitor concentrations (e.g., 10 μM, 3 μM, 1.1 μM, 330 nM, 110 nM, 33 nM, I1 nM, 3 nM, 1 nM) and an EC50 is calculated.
The EGFR mutant L858R, Del E746_A750, L858R/T790M, DelE746_A750/T790M, L858R/T790M/C797S and Del/T790M/C797S Ba/F3 cells were previously described (Zhou et al., Nature 462, (2009), 1070-1074). All cell lines were maintained in RPMI 1640 (Cellgro; Mediatech Inc., Herndon, Calif.) supplemented with 10% FBS 100 units/mL penicillin, 100 units/mL streptomycin, and 2 mM glutamine. L858R cells were maintained in ACL-4 media (Invitrogen, Carlsbad, Calif.) supplemented with 5% FBS, 100 units/mL penicillin, 100 units/mL streptomycin, and 2 mM glutamine. The EGFR I941R mutation was introduced via site directed mutagenesis using the Quick Change Site-Directed Mutagenesis kit (Stratagene; La Jolla, Calif.) according to the manufacturer's instructions. All constructs were confirmed by DNA sequencing. The constructs were shuttled into the retroviral vector JP1540 using the BD Creator™ System (BD Biosciences). Ba/F3 cells were infected with retrovirus and according to standard protocols, as described previously (Zhou 2009). Stable clones were obtained by selection in puromycin (2 μg/ml).
Growth and inhibition of growth was assessed by MTS assay and was performed according to previously established methods (Zhou 2009). The MTS assay is a colorimetric method for determining the number of viable cells that is based on the bioreduction of MTS by cells to a formazan product that is soluble in cell culture medium and can be detected spectrophotometrically. Ba/F3 cells of different EGFR genotypes were exposed to treatment and the number of cells used per experiment determined empirically and has been previously established (Zhou 2009). All experimental points were set up in six wells and all experiments were repeated at least three times. […] The curves were fitted using a non-linear regression model with a sigmoidal dose response.

[4] = system: patients with NSCLC resistant to gefitinib or erlotinib; settings: cited from earlier work
[5] = Mus musculus, BaF3, read-out: Ba/F3 cellular activity (EC50) T790M/L858R
[6] = read-out: Ba/F3 cellular activity (EC50) T790M/L858R + Cetuximab (1 μg/mL), presence of 1 μg/mL cetuximab

| EC50 [1, 5] | EC50 [1, 6] | IC50 [2] | Compound | inhibition at 1 µM ([1]; Mus musculus, BaF3) | inhibition at 1 µM [3] | RR [4] |
| --- | --- | --- | --- | --- | --- | --- |
| ≥ 750 nM | ≥ 750 nM | – | O=C1c2cc(-c3ccc(N4CCNCC4)cc3)ccc2Nc2ccc(F)cc2N1Cc1ccc2cc[nH]c2c1 [Compound I-19] | – | – | – |
| ≥ 750 nM | ≥ 750 nM | – | O=C1c2cc(-c3ccc4[nH]ccc4c3)ccc2Nc2ccc(F)cc2N1Cc1nccs1 [Compound I-10] | ≥ 75% | ≥ 75% | – |
| – | – | < 250 nM | CN1CCC(c2ccc(-c3ccc4c(c3)C(=O)N(Cc3ccccc3)c3cc(F)ccc3N4)cc2)CC1 [Compound I-17] | – | – | – |
| ≥ 750 nM | ≥ 750 nM | – | O=C1c2cc(-c3ccc(N4CCNCC4)cc3)ccc2Nc2ccc(F)cc2N1Cc1cccnc1 [Compound I-6] | ≥ 75% | ≥ 75% | – |
| ≥ 750 nM | ≥ 750 nM | < 250 nM | CN1CCC(n2cc(-c3ccc4c(c3)C(=O)N(Cc3cccc5cc[nH]c35)c3cc(F)ccc3N4)cn2)CC1 [Compound I-25] | – | – | – |
| ≥ 750 nM | ≥ 750 nM | < 250 nM | CN1CCC(n2cc(-c3ccc4c(c3)C(=O)N(Cc3cc(F)cc(F)c3)c3cc(F)ccc3N4)cn2)CC1 [Compound I-24] | – | – | – |
| ≥ 750 nM | ≥ 750 nM | – | O=C1c2cc(-c3ccc4[nH]ccc4c3)ccc2Nc2ccc(F)cc2N1Cc1cccnc1 [Compound I-9] | ≥ 75% | ≥ 75% | – |
| ≥ 750 nM | < 250 nM | < 250 nM | O=C1c2cc(-c3ccc4[nH]ccc4c3)ccc2Nc2ccc(F)cc2N1Cc1ccccc1 [Compound I-2] | ≥ 75% | ≥ 75% | – |
| ≥ 750 nM | ≥ 750 nM | < 250 nM | CN1CCC(n2cc(-c3ccc4c(c3)C(=O)N(Cc3cccc(Cl)c3)c3cc(F)ccc3N4)cn2)CC1 [Compound I-23] | – | – | – |
| ≥ 750 nM | 250 to 500 nM | < 250 nM | O=C1c2cc(Br)ccc2Nc2ccc(F)cc2N1Cc1ccccc1 [I-a] | – | – | – |
| ≥ 750 nM | ≥ 750 nM | – | Nc1ccc2c(c1)N(Cc1ccccc1)C(=O)c1cc(-c3ccc4[nH]ccc4c3)ccc1N2 [Compound I-14] | – | – | – |
| ≥ 750 nM | ≥ 750 nM | – | O=C1c2cc(-c3ccc(N4CCNCC4)cc3)ccc2Nc2ncc(F)cc2N1Cc1ccccc1 [Compound I-12] | – | – | – |

Second part, the molecule before the results:

| Compound | EC50 [1, 5] | EC50 [1, 6] | IC50 [2] | inhibition at 1 µM ([1]; Mus musculus, BaF3) | inhibition at 1 µM [3] | RR [4] |
| --- | --- | --- | --- | --- | --- | --- |
| O=C1c2cc(-c3ccc(N4CCNCC4)cc3)ccc2Nc2ccccc2N1Cc1ccccc1 [Compound I-11] | ≥ 750 nM | 250 to 500 nM | < 250 nM | ≥ 75% | ≥ 75% | – |
| O=C1c2cc(-c3ccc(N4CCNCC4)cc3)ccc2Nc2ccc(F)cc2N1Cc1ccccc1 [Compound I-1, 10-Benzyl-8-fluoro-2-(4-(piperazin-1-yl)phenyl)-5,10-dihydro-11H-dibenzo[b,e][1,4]diazepin-11-one] | ≥ 750 nM | 500 to 750 nM | < 250 nM | ≥ 75% | ≥ 75% | – |
| CN1CCC(n2cc(-c3ccc4c(c3)C(=O)N(Cc3ccccc3)c3cc(F)ccc3N4)cn2)CC1 [Compound I-3] | ≥ 750 nM | < 250 nM | < 250 nM | ≥ 75% | ≥ 75% | – |
| CN1CCN(c2ccc(Oc3ccc4c(c3)C(=O)N(Cc3ccccc3)c3cc(F)ccc3N4)cc2)CC1 [Compound I-20, 10-benzyl-8-fluoro-2-(4-(4-methylpiperazin-1-yl)phenoxy)-5,10-dihydro-11H-dibenzo[b,e][1,4]diazepin-11-one] | ≥ 750 nM | 250 to 500 nM | < 250 nM | – | – | – |
| O=C1c2cc(-c3ccc(-c4cn[nH]c4)cc3)ccc2Nc2ccc(F)cc2N1Cc1ccccc1 [Compound I-4] | ≥ 750 nM | 250 to 500 nM | < 250 nM | ≥ 75% | ≥ 75% | – |
| CC(=O)Nc1ccc2c(c1)N(Cc1ccccc1)C(=O)c1cc(-c3ccc4[nH]ccc4c3)ccc1N2 [Compound I-15] | ≥ 750 nM | ≥ 750 nM | – | – | – | – |
| O=C1c2cc(-c3ccc(N4CCNCC4)cc3)ccc2Nc2ccc(F)cc2N1c1ccccc1 [Compound I-5] | ≥ 750 nM | ≥ 750 nM | – | ≥ 75% | ≥ 75% | – |
| CCC(=O)Nc1ccc2c(c1)N(Cc1ccccc1)C(=O)c1cc(-c3ccc4[nH]ccc4c3)ccc1N2 [Compound I-16] | 250 to 500 nM | 250 to 500 nM | – | – | – | – |
| O=C1c2cc(-c3ccc(N4CCNCC4)cc3)ccc2Nc2ccc(F)cc2N1Cc1nccs1 [Compound I-7] | ≥ 750 nM | ≥ 750 nM | < 250 nM | ≥ 75% | ≥ 75% | – |
| CN1CCC(n2cc(-c3ccc4c(c3)C(=O)N(Cc3cccc(F)c3)c3cc(F)ccc3N4)cn2)CC1 [Compound I-22] | ≥ 750 nM | ≥ 750 nM | < 250 nM | – | – | – |
| O=C1c2cc(-c3ccc(N4CCNCC4)cc3)ccc2Nc2ccc(F)cc2N1Cc1cccc2cc[nH]c12 [Compound I-18] | ≥ 750 nM | < 250 nM | < 250 nM | – | – | – |
| CN(C)C/C=C/C(=O)Nc1cc2c(Nc3ccc(F)c(Cl)c3)ncnc2cc1O[C@H]1CCOC1 [Afatinib] | – | – | – | – | – | < 10% |
| O=C1c2cc(-c3ccc(N4CCNCC4)cc3)ccc2Nc2ccncc2N1Cc1ccccc1 [Compound I-13] | ≥ 750 nM | ≥ 750 nM | – | – | – | – |
| O=C1c2cc(-c3ccc4[nH]ccc4c3)ccc2Nc2ccc(F)cc2N1c1ccccc1 [Compound I-8] | ≥ 750 nM | ≥ 750 nM | – | ≥ 75% | ≥ 75% | – |
